Earlier results, collected in publication PMC4955775 (Bioorganic & medicinal chemistry letters, 2016).
[ ]: non-standard residue; d: D form. Dmt = Cc1cc(O)cc(C)c1C[C@H](N)C(=O)O; Tic = O=C(O)[C@@H]1Cc2ccccc2CN1

Row | Molecule | fold increased binding affinity at δ receptor compared to TIPP-NH2 (δ receptor) | fold increased binding affinity at μ receptor compared to TIPP-NH2 (μ receptor) | duration of the antinociceptive effect, times longer than morphine
1 | H-[Dmt][Tic]FF-NH2 [DIPP-NH2] | 25 fold | 65 fold | –
2 | Cc1cc(O)cc(C)c1C[C@H](N)C(=O)N[C@H](CCCNC(=N)N)C(=O)N[C@@H](Cc1ccccc1)C(=O)N[C@@H](CCCCN)C(N)=O [Compound 5, H-Dmt-D-Arg-Phe-Lys-NH2] | – | – | 4 times
